Reference: US20050282818A1, “Ubiquitin ligase inhibitors” (Rigel Pharmaceuticals, Inc., priority 2004, published 2005)
Where two headings read alike, the source gives them in different places.

Legend:
TRAF6/Uev1A/Ubc13 = biological target: T1, TRAF6/Uev1A/Ubc13 (Homo sapiens, UniProt Q9Y4K3); assay: TRAF6/Uev1A/Ubc13 plate-based ubiquitin ligase assay; type: biochemical
T1 sequence (Q9Y4K3 1-522): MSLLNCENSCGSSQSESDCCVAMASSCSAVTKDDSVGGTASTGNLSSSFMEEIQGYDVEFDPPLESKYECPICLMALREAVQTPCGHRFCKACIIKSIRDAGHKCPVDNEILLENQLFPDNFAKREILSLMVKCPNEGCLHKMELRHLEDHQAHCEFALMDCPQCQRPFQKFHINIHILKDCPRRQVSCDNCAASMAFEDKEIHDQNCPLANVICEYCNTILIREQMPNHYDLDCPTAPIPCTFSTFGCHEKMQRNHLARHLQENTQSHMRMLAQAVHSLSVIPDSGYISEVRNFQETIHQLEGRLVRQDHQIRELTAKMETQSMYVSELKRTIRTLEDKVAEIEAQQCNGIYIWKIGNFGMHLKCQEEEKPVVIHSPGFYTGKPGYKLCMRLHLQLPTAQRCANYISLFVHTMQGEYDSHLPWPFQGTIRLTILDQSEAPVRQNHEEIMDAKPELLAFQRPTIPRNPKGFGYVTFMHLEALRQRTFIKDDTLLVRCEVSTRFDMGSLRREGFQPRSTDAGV
Method in brief: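 Ligase activity was read as luminescence from anti-Flag/HRP detection of Flag-ubiquitin bound to casein-blocked Ni-plates alongside His-ubiquitin after a 1 h room-temperature reaction. Buffer: 62.5 mM Tris pH 7.5, 6.25 mM MgCl2, 1.0 mM DTT, 2 μM ATP; E1, Uev1a/Ubc13 and TRAF6 added last to start. IC50s derived across compound concentrations.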

A549 cells = assay: Cell proliferation PAD assay, A549; type: cell-based; details: Homo sapiens, 48 hours
Method in brief: (§1)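 Cells were seeded at 2,000 per well and dosed 24 h later, in duplicate, with 6.3-fold dilution series from a 10 mM master stock diluted 500-fold into wells. After 48 h at 37 °C, 5% CO2, cells were formamide-fixed, DAPI-stained and imaged to count live, apoptotic and dead cells.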

H1299 cells = assay: Cell proliferation PAD assay, H1299; type: cell-based; details: Homo sapiens, 48 hours
Method in brief: as §1

[1] = NCI-H1299, 3pt, read-out: H1299 3pt
[2] = NCI-H1299, 6pt, read-out: H1299 6pt

Structure (SMILES)	IC50 (TRAF6/Uev1A/Ubc13)	IC50 (A549 cells; 3pt, read-out: A549 3pt)	IC50 (H1299 cells; [1])	IC50 (A549 cells; 6pt, read-out: A549 6pt)	IC50 (H1299 cells; [2])
O=[N+]([O-])c1ccc(SCCO)c2nonc12 [compound 150, 2-[(7-nitro-2,1,3-benzoxadiazol-4-yl)thio]ethanol]	≥ 20 µM	< 1 µM	1 to 20 µM	< 1 µM	< 1 µM
O=[N+]([O-])c1ccc(N2CCC(O)(c3ccc(Cl)cc3)CC2)c2nonc12 [compound 159, 4-(4-chlorophenyl)-1-(7-nitro-2,1,3-benzoxadiazol-4-yl)piperidin-4-ol]	1 to 20 µM				
COC(=O)c1ccc(NS(=O)(=O)c2ccc(F)c3nonc23)cc1 [compound 167, methyl 4-{[(7-fluoro-2,1,3-benzoxadiazol-4-yl)sulfonyl]amino}benzoate]	≥ 20 µM	1 to 20 µM	1 to 20 µM	≥ 20 µM	≥ 20 µM
N#Cc1cccnc1N1CCN(S(=O)(=O)c2ccc(Cl)c3nonc23)CC1 [compound 170, 2-{4-[(7-chloro-2,1,3-benzoxadiazol-4-yl)sulfonyl]piperazin-1-yl}nicotinomtrile]	1 to 20 µM	1 to 20 µM	1 to 20 µM	≥ 20 µM	≥ 20 µM
O=S(=O)(Oc1ccc(N2CCN(S(=O)(=O)c3ccc(Cl)c4nonc34)CC2)cc1)c1ccc(Cl)c2nonc12 [compound 171, 4-{4-[(7-chloro-2,1,3-benzoxadiazol-4-yl)sulfonyl]piperazin-1-yl}phenyl 7-chloro-2,1,3-benzoxadiazole-4-sulfonate]	1 to 20 µM	≥ 20 µM	1 to 20 µM	≥ 20 µM	≥ 20 µM
O=S(=O)(c1ccc(Sc2cccc3cccnc23)c2nonc12)N1CCN(c2ncc(C(F)(F)F)cc2Cl)CC1 [compound 177, 8-{[7-({4-[3-chloro-5-(trifluoromethyl)pyridin-2-yl]piperazin-1-yl}sulfonyl)-2,1,3-benzoxadiazol-4-yl]thio}quinoline]	1 to 20 µM	≥ 20 µM	≥ 20 µM	≥ 20 µM	≥ 20 µM
COC(=O)c1ccc(NS(=O)(=O)c2c(Cl)ccc3nonc23)cc1 [compound 178, methyl 4-{[(5-chloro-2,1,3-benzoxadiazol-4-yl)sulfonyl]amino}benzoate]	≥ 20 µM	1 to 20 µM	1 to 20 µM	≥ 20 µM	< 1 µM
O=S(=O)(c1c(Cl)ccc2nonc12)N1CCN(c2ncc(C(F)(F)F)cc2Cl)CC1 [compound 179, 5-chloro-4-({4-[3-chloro-5-(trifluoromethyl)pyridin-2-yl]piperazin-1-yl}sulfonyl)-2,1,3-benzoxadiazole]	1 to 20 µM	1 to 20 µM	1 to 20 µM	1 to 20 µM	< 1 µM
N#Cc1ccccc1N1CCN(S(=O)(=O)c2c(Cl)ccc3nonc23)CC1 [compound 180, 2-{4-[(5-chloro-2,1,3-benzoxadiazol-4-yl)sulfonyl]piperazin-1-yl}benzonitrile]	≥ 20 µM	1 to 20 µM	1 to 20 µM	≥ 20 µM	≥ 20 µM
O=S(=O)(c1c(N2CCN(c3ccc(Cl)c(C(F)(F)F)c3)CC2)ccc2nonc12)N1CCN(c2ccc(Cl)c(C(F)(F)F)c2)CC1 [compound 181, 5-{4-[4-chloro-3-(trifluoromethyl)phenyl]piperazin-1-yl}-4-({4-[4-chloro-3-(trifluoromethyl)phenyl]piperazin-1-yl}sulfonyl)-2,1,3-benzoxadiazole]	1 to 20 µM	≥ 20 µM	≥ 20 µM	1 to 20 µM	≥ 20 µM

The next lines start with the values.

IC50 (TRAF6/Uev1A/Ubc13)	IC50 (A549 cells; 3pt, read-out: A549 3pt)	IC50 (H1299 cells; [1])	IC50 (A549 cells; 6pt, read-out: A549 6pt)	IC50 (H1299 cells; [2])	Structure (SMILES)
1 to 20 µM	≥ 20 µM	≥ 20 µM			O=[N+]([O-])c1ccc(N2CCN(c3ncccc3C(F)(F)F)CC2)c2nonc12 [compound 148, 4-nitro-7-{4-[3-(trifluoromethyl)pyridin-2-yl]piperazin-1-yl}-2,1,3-benzoxadiazole]
1 to 20 µM	≥ 20 µM	≥ 20 µM			CCOC(=O)c1cc(C#N)c(C)nc1N1CCN(c2ccc([N+](=O)[O-])c3nonc23)CC1 [compound 153, ethyl 5-cyano-6-methyl-2-[4-(7-nitro-2,1,3-benzoxadiazol-4-yl)piperazin-1-yl]nicotinate]
1 to 20 µM					O=[N+]([O-])c1ccc(Sc2nc3ccccc3s2)c2nonc12 [compound 158, 4-(1,3-benzothiazol-2-ylthio)-7-nitro-2,1,3-benzoxadiazole]
< 1 µM					O=[N+]([O-])c1ccc(N2CCN(c3ncc(C(F)(F)F)cc3Cl)CC2)c2nonc12 [compound 315, 4-{4-[3-chloro-5-(trifluoromethyl)pyrindin-2-yl]piperazin-1-yl}-7-nitro-2,1,3-benzoxadiazole]
